Results on two compounds are retold here after patent US6432969B1, “N-(substituted glycyl)-2 cyanopyrrolidines, pharmaceutical compositions containing them and their use in inhibiting dipeptidyl peptidase-IV” (Novartis AG, priority 2000, dated 2002).

In general, IC50 refers to the midpoint of a concentration-inhibition curve. Low values mean greater potency in that assay, high ones weaker potency in that assay. By melting point is commonly meant the temperature of the solid-liquid transition.

The target in data set [1] is T1, DPP-IV activity from human colonic carcinoma cell (Caco-2) extracts (Homo sapiens, UniProt P27487).
T1 construct: Cell extract is prepared from cells solubilized in 10 mM Tris HCl; host or cells: Caco-2, differentiated to induce DPP-IV expression
T1 sequence (P27487 whole entry): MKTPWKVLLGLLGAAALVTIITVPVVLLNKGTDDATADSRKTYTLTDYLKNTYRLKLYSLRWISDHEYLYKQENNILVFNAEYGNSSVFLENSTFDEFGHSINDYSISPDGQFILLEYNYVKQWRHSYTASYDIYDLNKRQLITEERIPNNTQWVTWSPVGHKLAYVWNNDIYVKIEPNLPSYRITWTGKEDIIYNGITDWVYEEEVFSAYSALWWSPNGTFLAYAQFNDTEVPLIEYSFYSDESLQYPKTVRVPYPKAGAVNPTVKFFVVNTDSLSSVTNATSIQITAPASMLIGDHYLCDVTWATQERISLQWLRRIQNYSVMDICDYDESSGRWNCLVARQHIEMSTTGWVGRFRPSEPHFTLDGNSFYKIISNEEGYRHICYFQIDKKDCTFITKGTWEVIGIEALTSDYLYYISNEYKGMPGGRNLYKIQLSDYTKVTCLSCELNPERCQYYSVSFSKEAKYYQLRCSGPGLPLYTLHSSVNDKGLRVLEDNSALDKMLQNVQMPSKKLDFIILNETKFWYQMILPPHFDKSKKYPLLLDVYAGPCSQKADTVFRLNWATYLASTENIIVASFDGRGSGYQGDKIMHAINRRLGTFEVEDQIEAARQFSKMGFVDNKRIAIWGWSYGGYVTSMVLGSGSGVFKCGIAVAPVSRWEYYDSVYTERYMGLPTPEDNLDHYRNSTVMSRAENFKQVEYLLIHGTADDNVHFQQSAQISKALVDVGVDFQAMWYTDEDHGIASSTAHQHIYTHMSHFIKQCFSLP
Briefly: Caco-2 DPP-IV Assay. In kind it is biochemical. The conditions noted are these: Caco-2 cell extract, substrate H-Ala-Pro-pNA, 8-point dose-response. The protocol: The human colonic carcinoma cell line Caco-2 was obtained from the American Type Culture Collection (ATCC HTB 37). Differentiation of the cells to induce DPP-IV expression was accomplished as described by Reisher, et al. in an article entitled “Increased expression of intestinal cell line Caco-2” in Proc. Natl. Acad. Sci., Vol. 90, pgs. […] Cell extract is prepared from cells solubilized in 10 mM Tris HCl, 0.15 M NaCl, 0.04 t.i.u.aprotinin, 0.5% nonidet-P40, pH 8.0, which is centrifuged at 35,000 g for 30 min. at 4° C. to remove cell debris. The assay is conducted by adding 20 μg solubilized Caco-2 protein, diluted to a final volume of 125 μl in assay buffer (25 mM Tris HCl pH 7.4, 140 mM NaCl, 10 mM KCl, 1% bovine serum albumin) to microtiter plate wells. After a 60 min. incubation at room temperature, the reaction is initiated by adding 25 μl of 1 mM substrate (H-Alanine-Proline-pNA; pNA is p-nitroaniline). […] A standard curve of free p-nitroaniline is generated using 0-500 μM solutions of free pNA in assay buffer. The curve generated is linear and is used for interpolation of substrate consumption (catalytic activity in nmoles substrate cleaved/min).
The potency of the test compounds as DPP-IV inhibitors, expressed as IC50, is calculated from 8-point, dose-response curves using a 4-parameter logistic function.

Data set [2] deals with T2, DPP-IV activity in human plasma (Homo sapiens, UniProt P27487).
T2 construct: from tissue; host or cells: human plasma
T2 sequence (P27487 39-766 limits assumed): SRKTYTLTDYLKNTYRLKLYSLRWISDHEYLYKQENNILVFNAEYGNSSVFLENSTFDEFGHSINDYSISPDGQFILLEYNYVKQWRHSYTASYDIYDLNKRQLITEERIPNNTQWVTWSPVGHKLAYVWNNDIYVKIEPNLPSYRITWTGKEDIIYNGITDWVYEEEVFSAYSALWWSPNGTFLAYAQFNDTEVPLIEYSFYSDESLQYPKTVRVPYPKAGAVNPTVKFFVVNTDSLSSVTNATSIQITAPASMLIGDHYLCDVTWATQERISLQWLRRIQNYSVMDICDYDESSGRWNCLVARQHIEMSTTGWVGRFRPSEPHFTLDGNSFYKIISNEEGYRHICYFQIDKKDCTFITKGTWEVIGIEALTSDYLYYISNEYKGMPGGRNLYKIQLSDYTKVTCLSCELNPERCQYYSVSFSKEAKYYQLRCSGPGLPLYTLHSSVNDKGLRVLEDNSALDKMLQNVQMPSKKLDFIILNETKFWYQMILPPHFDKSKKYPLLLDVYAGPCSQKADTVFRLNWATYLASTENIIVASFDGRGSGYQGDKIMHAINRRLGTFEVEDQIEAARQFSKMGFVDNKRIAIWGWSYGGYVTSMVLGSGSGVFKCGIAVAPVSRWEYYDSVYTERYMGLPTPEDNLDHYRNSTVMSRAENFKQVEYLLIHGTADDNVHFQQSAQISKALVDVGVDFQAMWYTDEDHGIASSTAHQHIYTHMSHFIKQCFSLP
Briefly: Human plasma DPP-IV assay. In kind it is biochemical. Conditions: substrate H-Gly-Pro-AMC. The protocol: (§1) Briefly, 5 μl of plasma are added to 96-well flat-bottom micortiter plates (Falcon), followed by the addition of 5 μl of 80 mM MgCl2 in incubation buffer (25 mMHEPES, 140 mM NaCl, 1% RIA-grade BSA, pH 7.8). After a 60 min. incubation at room temperature, the reaction is initiated by the addition of 10 μl of incubation buffer containing 0.1 mM substrate (H-Glycine-Proline-AMC; AMC is 7-amino 4-methylcoumarin). The plates are covered with aluminum foil (or kept in the dark) and incubated at room temperature for 20 min. […] A fluorescence-concentration curve of free AMC is generated using 0-50 μM solutions of AMC in assay buffer. The curve generated is linear and is used for interpolation of substrate consumption (catalytic activity in nmoles substrate cleaved/min). As with the previous assay, the potency of the test compounds as DPP-IV inhibitors, expressed as IC50, is calculated from 8-point, dose-response curves using a 4 parameter logistic function.

Data set [3] addresses T3, DPP-IV activity in rat plasma (Rattus norvegicus, UniProt P14740).
T3 construct: from tissue; host or cells: rat plasma
Put plainly: Rat plasma DPP-IV assay. In kind it is biochemical. Conditions: substrate H-Gly-Pro-AMC. The protocol:
as §1

T3 sequence (P14740 38-767 limits assumed): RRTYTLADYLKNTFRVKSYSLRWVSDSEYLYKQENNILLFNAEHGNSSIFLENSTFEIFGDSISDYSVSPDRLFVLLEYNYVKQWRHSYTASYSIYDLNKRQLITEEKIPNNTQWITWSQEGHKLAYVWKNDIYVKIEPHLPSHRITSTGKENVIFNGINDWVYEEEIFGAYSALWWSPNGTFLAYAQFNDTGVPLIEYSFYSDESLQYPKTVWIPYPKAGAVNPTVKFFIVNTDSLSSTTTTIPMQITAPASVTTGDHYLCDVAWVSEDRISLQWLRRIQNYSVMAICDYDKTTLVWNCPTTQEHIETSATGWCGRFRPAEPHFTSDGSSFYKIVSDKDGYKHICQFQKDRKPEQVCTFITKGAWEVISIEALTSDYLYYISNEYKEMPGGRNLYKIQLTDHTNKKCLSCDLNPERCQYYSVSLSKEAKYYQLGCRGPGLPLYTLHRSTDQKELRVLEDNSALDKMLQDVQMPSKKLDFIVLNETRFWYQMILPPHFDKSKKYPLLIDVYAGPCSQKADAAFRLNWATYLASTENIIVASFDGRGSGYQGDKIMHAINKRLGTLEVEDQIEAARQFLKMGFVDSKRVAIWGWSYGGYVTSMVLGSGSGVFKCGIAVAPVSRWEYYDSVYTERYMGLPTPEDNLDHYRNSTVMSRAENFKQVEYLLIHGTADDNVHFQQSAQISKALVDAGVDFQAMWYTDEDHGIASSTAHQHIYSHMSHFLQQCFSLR

For `CC(C)(CNc1cc(C(F)(F)F)ccn1)NCC(=O)N1CCC[C@H]1C#N` [Ex. 2E, 1-[[[2-[(4-trifluoromethyl-2-pyridinyl)amino]-1,1-dimethylethyl]amino]acetyl]-2-cyano-(S)-pyrrolidine], the melting point was 38 to 40 °C. Further, the IC50 in data set [1] was determined as 27 nM. For the same compound, in data set [2], inhibition was half-maximal at 27 nM (IC50). The IC50 in data set [3] is 19 nM.

The compound `N#C[C@@H]1CCCN1C(=O)CNC1CCN(c2nc(-c3ccccc3)cs2)CC1` [Ex. 2KK, 1-[[[1-(4-phenyl-2-thiazolyl)-4-piperidinyl]amino]acetyl]-2-cyano-(S)-pyrrolidine] came in with a melting point of 141 to 143 °C. In data set [1], this compound returned an IC50 of 28 nM. In addition, in data set [2], the IC50 was 38 nM. Also, half-maximal inhibition in data set [3] (IC50) required 12 nM.
